Results published in patent US9358266B2, “Treatment of sepsis using complement inhibitors” (The Trustees of the University of Pennsylvania, priority 2010, dated 2016).

Columns and labels:
[1] = system: complement; experiment: Complement activation in LD100 model of E. coli sepsis in baboons; format: in vivo, Papio cyanocephalus; settings: for % Complement Activation at T+120 min: untreated avg. 2.8
Method: (§1) Reagents, Compstatin analog and live E. coli organisms were obtained or prepared as described in Example 1. Papio cyanocephalus baboons were infused with 2-3×10^10 CFU/kg live E. coli (LD100 dose) as described (Taylor F B, Jr., et al., 2000, Blood 95: 1680-1686). The time point at which the infusion was started was indicated as T-0, a time point of n minutes or hours thereafter referred to as T+n minutes (or hours). The Compstatin analog was administered at three different concentrations as an intravenous bolus followed by continuous infusion.
(§2) Complement activity was measured in accordance with known methods. Survival time was also recorded.

[2] = system: baboons infused with live E. coli (LD100 dose); experiment: Survival time in LD100 model of E. coli sepsis in baboons; format: in vivo, Papio cyanocephalus; settings: for Survival Time: no antibiotics
Method: as §1, §2

[3] = system: human complement; settings: relative to baboon complement; Sahu et al. 2003; cited from earlier work
[4] = molecular target: primate C3 (Homo sapiens, UniProt P01024); settings: Janssen et al. 2007; cited from earlier work
Sequence of primate C3 (P01024 23-1663): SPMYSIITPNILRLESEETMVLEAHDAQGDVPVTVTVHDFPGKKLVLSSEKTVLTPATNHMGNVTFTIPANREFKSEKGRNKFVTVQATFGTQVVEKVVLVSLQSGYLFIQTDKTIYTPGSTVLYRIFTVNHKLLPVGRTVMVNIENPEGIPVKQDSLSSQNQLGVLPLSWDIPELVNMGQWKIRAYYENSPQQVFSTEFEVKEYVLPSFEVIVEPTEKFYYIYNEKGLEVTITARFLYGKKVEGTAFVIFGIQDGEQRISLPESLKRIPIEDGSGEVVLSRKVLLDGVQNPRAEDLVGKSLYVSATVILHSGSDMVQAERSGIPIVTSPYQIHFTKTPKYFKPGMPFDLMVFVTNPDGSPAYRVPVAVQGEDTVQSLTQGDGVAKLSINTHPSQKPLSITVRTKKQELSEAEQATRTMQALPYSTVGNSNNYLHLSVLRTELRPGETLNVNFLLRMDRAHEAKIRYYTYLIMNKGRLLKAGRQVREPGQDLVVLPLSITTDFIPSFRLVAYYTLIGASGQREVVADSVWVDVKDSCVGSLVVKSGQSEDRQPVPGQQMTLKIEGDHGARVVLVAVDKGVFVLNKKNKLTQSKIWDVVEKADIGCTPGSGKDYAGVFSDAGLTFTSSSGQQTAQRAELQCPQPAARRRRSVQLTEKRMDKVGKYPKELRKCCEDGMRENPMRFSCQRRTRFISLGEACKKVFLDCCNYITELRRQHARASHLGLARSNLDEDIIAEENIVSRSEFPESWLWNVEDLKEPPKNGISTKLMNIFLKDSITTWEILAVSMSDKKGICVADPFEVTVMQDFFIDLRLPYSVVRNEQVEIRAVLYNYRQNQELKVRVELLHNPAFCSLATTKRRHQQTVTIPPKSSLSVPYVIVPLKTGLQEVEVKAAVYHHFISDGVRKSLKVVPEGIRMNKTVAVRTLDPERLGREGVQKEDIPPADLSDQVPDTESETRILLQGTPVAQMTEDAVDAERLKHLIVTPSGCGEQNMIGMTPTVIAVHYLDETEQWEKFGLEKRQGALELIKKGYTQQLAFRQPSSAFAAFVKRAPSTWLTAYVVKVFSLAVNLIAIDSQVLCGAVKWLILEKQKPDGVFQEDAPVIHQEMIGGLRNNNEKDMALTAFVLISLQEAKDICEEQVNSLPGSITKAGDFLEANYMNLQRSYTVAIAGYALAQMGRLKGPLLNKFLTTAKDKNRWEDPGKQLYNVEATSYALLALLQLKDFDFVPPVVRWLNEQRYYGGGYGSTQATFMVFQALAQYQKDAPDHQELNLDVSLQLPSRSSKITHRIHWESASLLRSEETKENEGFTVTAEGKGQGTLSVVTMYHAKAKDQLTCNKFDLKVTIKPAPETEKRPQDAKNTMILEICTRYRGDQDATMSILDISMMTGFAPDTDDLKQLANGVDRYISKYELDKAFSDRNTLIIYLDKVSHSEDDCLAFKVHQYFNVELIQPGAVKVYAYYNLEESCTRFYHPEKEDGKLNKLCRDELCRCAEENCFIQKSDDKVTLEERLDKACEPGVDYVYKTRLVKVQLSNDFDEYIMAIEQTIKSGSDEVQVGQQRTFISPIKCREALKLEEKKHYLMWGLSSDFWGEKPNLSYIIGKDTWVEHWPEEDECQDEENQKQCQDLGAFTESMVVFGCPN

[5] = system: baboon complement; settings: relative to human complement; Sahu et al. 2003; cited from earlier work
[6] = system: baboons infused with live E. coli (LD50 dose); experiment: Plasma cytokines multiplex assay, baboon LD50 E. coli sepsis; format: in vivo, Papio cyanocephalus
[7] = system: baboons infused with live E. coli (LD50 dose); experiment: Immunofluorescence and qRT-PCR of hemostatic proteins (PAI-1, TF, TFPI, TM) in lung and liver, baboon LD50 E. coli sepsis; format: in vivo, Papio cyanocephalus; settings: for PAI1 mRNA in liver: vs non-challenged controls (1±0.6), E. coli alone 22-fold (±9)
[8] = system: baboons infused with live E. coli (LD50 dose); experiment: Blood pressure and organ function biochemical tests, baboon LD50 E. coli sepsis; format: in vivo, Papio cyanocephalus
[9] = system: baboons infused with live E. coli (LD50 dose); experiment: Immunofluorescence of complement pathway proteins in kidney, baboon LD50 E. coli sepsis; format: in vivo, Papio cyanocephalus
[10] = system: baboons infused with live E. coli (LD50 dose); experiment: Coagulation tests (fibrinogen, FDP, APTT), baboon LD50 E. coli sepsis; format: in vivo, Papio cyanocephalus
[11] = system: complement; experiment: Complement activation products and complement activity in plasma, baboon LD50 E. coli sepsis; format: in vivo, Papio cyanocephalus
[12] = system: baboons infused with live E. coli (LD50 dose); experiment: Hematological parameters and cell accumulation in organs, baboon LD50 E. coli sepsis; format: in vivo, Papio cyanocephalus
[13] = system: baboons infused with live E. coli (LD50 dose); experiment: Histopathological analysis of organs, baboon LD50 E. coli sepsis; format: in vivo, Papio cyanocephalus
[14] = both preventive and rescue therapy, data not shown
[15] = lung cryosections immunofluorescence, both early and late treatments, FIG. 5A
[16] = immunofluorescence MFI of kidney cryosections, T+24, T0 and T+5 treatment, FIG. 2
[17] = kidney immunofluorescence, FIG. 2
[18] = septic baboons, infusion with Compstatin analog
[19] = histology at 24 hrs vs non-treated group

CC[C@H](C)[C@H](N)C(=O)N[C@H]1CSSC[C@@H](C(=O)N[C@H](C(N)=O)[C@@H](C)O)NC(=O)[C@H](CCCN=C(N)N)NC(=O)[C@H](Cc2cnc[nH]2)NC(=O)[C@H](Cc2cnc[nH]2)NC(=O)CNC(=O)[C@H](Cc2c[nH]c3ccccc23)NC(=O)[C@H](CC(=O)O)NC(=O)[C@H](CCC(N)=O)NC(=O)[C@H](C(C)C)NC(=O)[C@H](C(C)C)NC1=O [Compstatin, Ile-Cys-Val-Val-Gln-Asp-Trp-Gly-His-His-Arg-Cys-Thr]
% Complement Activation at T+120 min ([1]; animal 1, bolus 0.33 mg/kg T−0, 1.74 mg/kg T+60, infusion 20 μg/min/kg (8 hrs), total 58 mg): 0.6%
% Complement Activation at T+120 min ([1]; animal 2, bolus 1.0 mg/kg T−0, 2.3 mg/kg T+60, infusion 20 μg/min/kg (8 hrs), total 78 mg): 0.5%
% Complement Activation at T+120 min ([1]; animal 3, bolus 10 mg/kg T−0, infusion 200 μg/min/kg (8 hrs), total 760 mg): 0.0%
inhibition of complement activation by T+120 minutes ([1]; animal receiving the highest concentration): complete inhibition
inhibition of complement activation by T+120 minutes ([1]; animals receiving the lesser concentrations): substantial inhibition
Survival Time ([2]; animal 1, bolus 0.33 mg/kg T−0, 1.74 mg/kg T+60, infusion 20 μg/min/kg (8 hrs)): 31.5 h
Survival Time ([2]; animal 2, bolus 1.0 mg/kg T−0, 2.3 mg/kg T+60, infusion 20 μg/min/kg (8 hrs)): 7.0 h
Survival Time ([2]; animal 3, bolus 10 mg/kg T−0, infusion 200 μg/min/kg (8 hrs)): 11.5 h
survival of treated animals ([2]; no antibiotic treatment): died within a few hours
inhibition of human complement [3]: approximately equimolar concentrations
binding to primate C3 [4]: specifically binds
inhibition of baboon complement [5]: approximately equimolar concentrations

Ac-I[CVW(Me)QDWGAHRCT]I-NH2 [Compstatin analog]
effect on plasma cytokines ([6]; 23-plex assay, nine increased by sepsis, except eotaxin and IL-6, data not shown): marginal
plasma IL-6 [6, 14]: reduction
plasma eotaxin [6, 14]: reduction
E. coli induced PAI-1 staining in lung [7, 15]: decreased
E. coli induced TF staining in lung [7, 15]: decreased
TFPI in endothelial cells of lung [7, 15]: protected against sepsis-induced downregulation
TM in endothelial cells of lung [7, 15]: protected against sepsis-induced downregulation
TF expression in the lung ([7]; treated animals): decrease
monocyte/macrophages infiltration in the lung ([7]; treated animals): decrease
PAI1 mRNA in liver ([7]; treated at T0, mean (±SEM 8)): 8 fold
PAI1 mRNA in liver ([7]; treated at T+5, mean (±SEM 0.8)): 4 fold
PAI-1 expression in endothelial cells and macrophages ([7]; treated versus non-treated septic baboons): down-regulated
creatinine, magnitude of the response ([8]; T+8 and T+24, two treatment groups vs non treated septic animals, FIG. 6B): lower
LDH, magnitude of the response ([8]; T+8 and T+24, two treatment groups vs non treated septic animals, FIG. 6C): lower
ALT, magnitude of the response ([8]; T+8 and T+24, two treatment groups vs non treated septic animals, FIG. 6D): lower
AST, magnitude of the response ([8]; T+8 and T+24, two treatment groups vs non treated septic animals, FIG. 6E): lower
decrease of mean systemic arterial blood pressure ([8]; early treatment (T0 to T+8), FIG. 6A): virtually abolished this decrease
mean systemic arterial blood pressure ([8]; treatment during the second stage (T+5 to T+11), compared with septic untreated baboons, FIG. 6A): higher recovery of the blood pressure in the late phase
C3b deposition in the kidney [9, 16]: significantly inhibited
C5b9 deposition in the kidney [9, 16]: significantly inhibited
MBL deposition in the kidney [9, 16]: significantly inhibited
shedding of CD55 from the endothelial surface [9, 17]: protected against shedding
shedding of CD59 from the endothelial surface [9, 17]: protected against shedding
mRNA expression of CD55 and CD59 ([9]; qRT-PCR, data not shown): without significantly affecting
fibrinogen levels ([10]; after 24 hours, compared with non-treated animals, FIG. 4A): fully recovered and overshot the initial values
fibrinogen consumption ([10]; first eight hours post-challenge, FIG. 4A): reduced fibrinogen consumption
FDP levels ([10]; treated vs non-treated animals, FIG. 4B): significantly lower
APTT ([10]; treated vs non-treated animals, FIG. 4C): slightly decreased
plasma complement activity ([11]; 10 mg/kg iv bolus + 60 μg/kg/min, both preventive (T0 to T+8) and rescue (T+5 to T+11) treatments, FIG. 1A): inhibited
plasma TCC levels ([11]; 10 mg/kg iv bolus + 60 μg/kg/min, both preventive (T0 to T+8) and rescue (T+5 to T+11) treatments, FIG. 1B): inhibited
late rise of plasma TCC levels ([11]; rescue regimen (T+5 to T+11) compared with prevention group, FIG. 1B): averting the late rise observed in the prevention group
C3a generation [11, 18]: rapidly inhibited
C3b generation [11, 18]: rapidly inhibited
accumulation of macrophages in the lung ([12]; FIG. 3C): lower accumulation
accumulation of platelets in the lung and on the surface of the large vessels ([12]; FIG. 3D-E): lower accumulation
WBC count in blood ([12]; both prevention and rescue regimens, FIG. 3A): faster WBC recovery
platelet count in blood (platelet consumption) ([12]; both prevention and rescue regimens, FIG. 3B): lower plasma platelet consumption
number of neutrophils ([12]; immunostaining for cell specific markers, not shown): without significant changes
CD68 positive macrophages ([12]; immunostaining, lung, FIG. 3C): significant decrease
C5b9 deposition on aggregated platelets ([12]; lung and large vessels, FIG. 3D-E): decreased C5b9 deposition
histopathologic changes of the tissues (graded 0 to 4) ([13]; T+24, two treated groups (T0, T+5) vs E coli challenge group, P<0.001, with the exception of the lung congestion, FIG. 7): significantly less severe
cell death in adrenals and spleen [13, 19]: decreased cell death
hepatocyte vacuolization and liver degeneration [13, 19]: lack of hepatocyte vacuolization and liver degeneration
leukocyte infiltration in the lung, liver adrenals and spleen [13, 19]: less leukocyte infiltration
thrombosis or capillary leak in the lungs [13, 19]: no obvious signs of thrombosis or capillary leak
tubular necrosis and glomerular thrombosis in the kidneys [13, 19]: no or less tubular necrosis and glomerular thrombosis
organ protection by histological analysis ([13]; organs collected after 24 hrs): substantial organ-protection
